OC[C@H]1O[C@@H](Oc2ccc(O)cc2)[C@H](O)[C@@H](O)[C@@H]1O
solubility (mole fraction)
Conditions | 283.15 K | 288.15 K | 293.15 K | 298.15 K | 303.15 K | 313.15 K | 323.15 K
in 1,4-dioxane | 0.0046 | – | 0.00491 | – | 0.00579 | 0.00696 | 0.00816
in acetone | 0.000601 | – | 0.000781 | – | 0.000962 | 0.00126 | 0.00161
in acetonitrile | 3.5e-05 | – | 7.2e-05 | – | 0.000145 | 0.000239 | 0.000365
in dichloromethane | 4e-06 | 7e-06 | 1e-05 | 1.3e-05 | 1.6e-05 | – | –
in ethanol | 0.00228 | – | 0.00274 | – | 0.00351 | 0.0044 | 0.00582
in ethyl acetate | 0.000155 | – | 0.00016 | – | 0.000166 | 0.000173 | 0.00018
in isopropanol | 0.000532 | – | 0.000795 | – | 0.00128 | 0.00172 | 0.00259
in methanol | 0.0112 | – | 0.0129 | – | 0.0151 | 0.0181 | 0.0226
in n-pentanol | 0.000338 | – | 0.000471 | – | 0.000689 | 0.000851 | 0.00119
in n-propanol | 0.000787 | – | 0.00102 | – | 0.00142 | 0.00185 | 0.00248
in sec-butanol | 0.000355 | – | 0.000691 | – | 0.000969 | 0.00167 | 0.00226
in water | 0.00524 | – | 0.00796 | – | 0.0108 | 0.0173 | 0.0283

— BigSolDB 2.1
